Patent US6624151B1, “Compounds selectively inhibiting gamma 9 delta 2 T lymphocytes” (Institut National de la Sante et de la Recherche Medicale, priority 1999, dated 2003)
Where two headings read alike, the source gives them in different places.

Legend:
Tγ9δ2 lymphocytes [1] = assay: Induced cytotoxicity test, Tγ9δ2 lymphocyte clone stimulated by antigen BrHPP
Tγ9δ2 lymphocytes [2] = details: FIG. 7 lower
Protocol: The two left graphs are obtained by stimulating the Tγ9δ2 lymphocytes as in Example 12, by adding first 9 nM of BrHPP antigen into the culture medium, then by adding increasing concentrations (on the abscissa) of the compound according to the invention, BrHPCP. The two right hand graphs are obtained by incorporating first of all 60 μM of the compound according to the invention, BrHPCP, into the culture medium in contact with the Tγ9δ2 lymphocytes, then by adding increasing concentrations (on the abscissa) of the antigen compound stimulating BrHPP. […] The upper graphs give the percentage of residual response in the cultures (induced cytotoxicity test). The lower graphs give the concentration of TNF salted out in pg/ml.

Tγ8δ3 lymphocytes = details: clone stimulated by a conventional antigen; increasing concentrations; FIG. 8
Protocol: A test of induced cytotoxicity is carried out as in Example 12, but with a clone of Tγ8δ3 lymphocyte stimulated by a conventional antigen of these lymphocytes (black circles), and in the presence of the compound according to the invention BrHPCP in increasing concentrations in the culture medium (black squares in FIG. 8).

[3] = read-out: IC50 concentration leading to the inhibition of 50% of the reference response, lymphocytes stimulated by 80 nM BrHPP, induced cytotoxicity test
[4] = read-out: bioactivity (selective inhibition of Tγ9δ2 lymphocytes), concentration of BrHPP equal to 150 μM (so in the source)

With C=C(C)CCOP(=O)(O)C(F)(F)P(=O)(O)O [I PCF2P, 3-Methyl-3-butene-1-yl-difluoromethylenediphosphonate] the IC50 (Tγ9δ2 lymphocytes [1]; [3]) was 1000 µM.
Molecule CC(C)(O)CCOP(=O)(O)CP(=O)(O)O [tButOH PCP, 3-Methyl-3-butanol-1-yl-methylenediphosphonate] has an IC50 (Tγ9δ2 lymphocytes [1]; [3]) of 1000 µM.
CC(O)(CBr)CCOP(=O)(O)CP(=O)(O)O (stereo not shown) [BrH PCP, 3-(Bromomethyl)-3-butanol-1-yl-methylenediphosphonate] was tested, and the “inhibition of stimulation by BrHPP (TNF salted out)” value (Tγ9δ2 lymphocytes [2]; 9 nM BrHPP first, then increasing BrHPCP) was “inhibits the stimulation by BrHPP”, the “reversibility of inhibition (TNF salted out)” value (Tγ9δ2 lymphocytes [2]; 60 μM BrHPCP first, then increasing BrHPP) was “reversible” and the “inhibition of Tγ8δ3 lymphocytes” value (Tγ8δ3 lymphocytes) was “does not inhibit the Tγ8δ3 lymphocytes”. For the same molecule, the “inhibition of stimulation by BrHPP (residual response, induced cytotoxicity)” value (Tγ9δ2 lymphocytes [1]; 9 nM BrHPP first, then increasing BrHPCP, FIG. 7 upper) was “inhibits the stimulation by BrHPP”, the “reversibility of inhibition (induced cytotoxicity)” value (Tγ9δ2 lymphocytes [1]; 60 μM BrHPCP first, then increasing BrHPP, FIG. 7 upper) was “reversible” and the IC50 (Tγ9δ2 lymphocytes [1]; [3]) was 15 µM.
“3-Methyl-3-butene-1-yl-methylenediphosphonate [I PCP]” showed an IC50 (Tγ9δ2 lymphocytes [1]; [3]) of 700 µM.
Molecule CC(O)(CBr)CCOP(=O)(O)C(F)P(=O)(O)O (stereo not shown) [BrHPCHFP, 3-(bromomethyl)-3-butanol-1-yl-monofluoromethylenediphosphonate] has an IC50 (Tγ9δ2 lymphocytes [1]; [4]) of 30 µM.
For CC1(CCOP(=O)(O)C(F)P(=O)(O)O)CO1 (stereo not shown) [Epox PCHFP, 3,4-epoxy-3-methyl-1-butyl-monofluoromethylenediphosphonate], the IC50 (Tγ9δ2 lymphocytes [1]; [4]) was 50 µM.
CC(O)(CBr)CCOP(=O)(O)C(F)(F)P(=O)(O)O (stereo not shown) [BrH PCF2P, 3-(Bromomethyl)-3-butanol-1-yl-difluoromethylenediphosphonate] showed an IC50 (Tγ9δ2 lymphocytes [1]; [3]) of 150 µM.
Work on CC1(CCOP(=O)(O)C(F)(F)P(=O)(O)O)CO1 (stereo not shown) [Epox PCF2P, 3,4-Epoxy-3-methyl-1-butyl-difluoromethylenediphosphonate] yielded an IC50 (Tγ9δ2 lymphocytes [1]; [3]) of 300 µM.
For CC(O)(CI)CCOP(=O)(O)CP(=O)(O)O (stereo not shown) [IH PCP, 3-(Iodomethyl)-3-butanol-1-yl-methylenediphosphonate], the IC50 (Tγ9δ2 lymphocytes [1]; [3]) was 15 µM.
In the case of CC1(CCOP(=O)(O)CP(=O)(O)O)CO1 (stereo not shown) [Epox PCP, 3,4-Epoxy-3-methyl-1-butyl-methylenediphosphonate], the IC50 (Tγ9δ2 lymphocytes [1]; [3]) is reported as 30 µM and the IC50 (Tγ9δ2 lymphocytes [1]; read-out: IC50 concentration, stated in text (formulation example), IC50 defined with BrHPP at 80 nM) is reported as 15 µM.
